Values quoted from earlier work in article PMC6838683, “Discovery of Human Signaling Systems: Pairing Peptides to G Protein-Coupled Receptors” (Cell, 2019).
Where two headings read alike, the source gives them in different places. No end group written: not given here.

Target: human GPCRs
Design: method as in Guide to Pharmacology database
Conditions: max reported value, ref Guide to Pharmacology database, cited from earlier work
Description: Supplement mmc1.xlsx, sheet "HumanGPCRLigands" | column: pKi_value; pKd_value; pEC50_value; pIC50_value

[1] = receptor gasr_human (CCKBR, P32239)
[2] = receptor CCR2 (ccr2_human, P41597)
[3] = receptor CCR3 (ccr3_human, P51677)
[4] = receptor CCR5 (ccr5_human, P51681)
[5] = receptor CCR1 (ccr1_human, P32246)
[6] = receptor CCR7 (ccr7_human, P32248)
[7] = receptor CXCR1 (cxcr1_human, P25024)
[8] = receptor CXCR2 (cxcr2_human, P25025)
[9] = receptor CXCR3 (cxcr3_human, P49682)
[10] = receptor vipr1_human (VIPR1, P32241)
[11] = receptor gnrhr_human (GNRHR, P30968)
[12] = receptor RXFP4 (rl3r2_human, Q8TDU9)
[13] = receptor pacr_human (ADCYAP1R1, P41586)

Q: For NC(=O)CC[C@@H]1NC(=O)[C@H](Cc2ccccc2)NC(=O)[C@H](Cc2ccc(O)cc2)NC(=O)[C@@H](N)CSSC[C@@H](C(=O)N2CCC[C@H]2C(=O)N[C@@H](CCCN=C(N)N)C(=O)NCC(N)=O)NC(=O)[C@H](CC(N)=O)NC1=O [vasopressin], which pKi_value (receptor AVPR1A (v1ar_human, P37288)) is on record?
A: 9.3

Q: And the pKi_value (receptor AVPR1B (v1br_human, P47901))?
A: 9.5

Q: And the pKi_value (receptor AVPR2 (v2r_human, P30518))?
A: 9.1

Q: And the pKi_value (receptor OXTR (oxyr_human, P30559))?
A: 9.3

Q: With O=C(O)CCC(=O)C(=O)O [α-ketoglutaric acid] as the molecule, how does the pEC50_value (receptor oxgr1_human (OXGR1), Oxoglutarate receptors) read?
A: 4.5

Q: With C[C@@H](O)CC(=O)O [β-D-hydroxybutyric acid] as the molecule, how does the pEC50_value (receptor hcar2_human (HCAR2), Hydroxycarboxylic acid receptors) read?
A: 3.1

Q: With NCCC(=O)O [β-alanine] as the molecule, how does the pEC50_value (receptor mrgrd_human (MRGPRD), Class A orphans) read?
A: 4.8

Q: Which pEC50_value (receptor taar1_human (TAAR1, Q96RJ0)) does the source give for NCCc1ccccc1 [β-phenylethylamine] here?
A: 7

Q: With (-)-adrenaline as the molecule, how does the pKi_value (receptor ada1a_human (ADRA1A, P35348)) read?
A: 6.5

Q: And the pKi_value (receptor ada1b_human (ADRA1B, P35368))?
A: 6.5

Q: And the pKi_value (receptor ada1d_human (ADRA1D, P25100))?
A: 7.2

Q: What about the pKi_value (receptor ada2a_human (ADRA2A, P08913)) of the same molecule?
A: 7.4

Q: And the pKi_value (receptor ada2b_human (ADRA2B, P18089))?
A: 5.2

Q: What about the pKi_value (receptor ada2c_human (ADRA2C, P18825)) of the same molecule?
A: 5.8

Q: And the pKi_value (receptor adrb1_human (ADRB1, P08588))?
A: 6

Q: What about the pKi_value (receptor adrb2_human (ADRB2, P07550)) of the same molecule?
A: 6.2

Q: And the pKi_value (receptor adrb3_human (ADRB3, P13945))?
A: 3.9

Q: Which pIC50_value (receptor ednra_human (EDNRA, P25101)) does the source give for “Big endothelin-1 (CSCSSLMDKECVYFCHLDIIWVNTPEHVVPYGLGSPRS; not fully specified; ends and bridges not checked; UniProt P05305 53-90, looked up)” here?
A: 8.5

Q: Which pIC50_value [1] does the source give for CCK-4 here?
A: 7.5

Q: With CCK-8 as the molecule, how does the pIC50_value [1] read?
A: 10

Q: Which results are given for CCL2?
A: pIC50_value [2]: 10.2; pKi_value [3]: 7.8; pKi_value [4]: 7.5

Q: With CCL3 as the molecule, how does the pKi_value [5] read?
A: 10.2

Q: What about the pKi_value [4] of the same molecule?
A: 8.9

Q: With CCL5 as the molecule, how does the pKi_value [5] read?
A: 8.2

Q: And the pKi_value [3]?
A: 9.3

Q: What about the pKi_value [4] of the same molecule?
A: 9.7

Q: What about the pEC50_value (receptor gpr75_human (GPR75), Class A orphans) of the same molecule?
A: 9.6

Q: For CCL7, which pKi_value [5] is on record?
A: 8.1

Q: And the pIC50_value [2]?
A: 8.7

Q: What about the pKi_value [3] of the same molecule?
A: 9.2

Q: What about the pKi_value [4] of the same molecule?
A: 7.5

Q: With CCL11 as the molecule, how does the pIC50_value [2] read?
A: 7.7

Q: What about the pIC50_value [3] of the same molecule?
A: 9

Q: And the pKi_value [3]?
A: 10

Q: And the pIC50_value [4]?
A: 7.7

Q: For CCL13, which pIC50_value [2] is on record?
A: 8.7

Q: What about the pIC50_value [3] of the same molecule?
A: 10.3

Q: Which pIC50_value [6] does the source give for CCL19 here?
A: 9

Q: And the pKd_value [6]?
A: 10

Q: What about the pIC50_value (receptor CCRL2 (ccrl2_human, O00421)) of the same molecule?
A: 7.4

Q: With CCL20 as the molecule, how does the pIC50_value (receptor CCR6 (ccr6_human, P51684)) read?
A: 8.5

Q: With CCL26 as the molecule, how does the pIC50_value [2] read?
A: 8.5

Q: And the pIC50_value [3]?
A: 8.9

Q: For CST-17, which pKi_value (receptor SSTR1 (ssr1_human, P30872)) is on record?
A: 9.6

Q: And the pKi_value (receptor SSTR2 (ssr2_human, P30874))?
A: 9.3

Q: What about the pKi_value (receptor SSTR3 (ssr3_human, P32745)) of the same molecule?
A: 9.9

Q: What about the pKi_value (receptor SSTR4 (ssr4_human, P31391)) of the same molecule?
A: 9.6

Q: What about the pKi_value (receptor SSTR5 (ssr5_human, P35346)) of the same molecule?
A: 10.2

Q: What does the source list for CXCL1?
A: pKi_value [7]: 6.4; pKi_value [8]: 9.7

Q: With CXCL2 as the molecule, how does the pIC50_value [8] read?
A: 9.1

Q: For CXCL3, which pIC50_value [8] is on record?
A: 9.2

Q: For CXCL5, which pIC50_value [8] is on record?
A: 9

Q: With CXCL6 as the molecule, how does the pKi_value [7] read?
A: 7

Q: And the pKd_value [8]?
A: 7

Q: Which pKd_value [7] does the source give for CXCL8 here?
A: 8.1

Q: And the pKi_value [7]?
A: 9.5

Q: What about the pKi_value [8] of the same molecule?
A: 9.5

Q: With CXCL9 as the molecule, how does the pKi_value [9] read?
A: 8.3

Q: With CXCL10 as the molecule, how does the pKi_value [9] read?
A: 9.8

Q: With CXCL11 as the molecule, how does the pKi_value [9] read?
A: 10.5

Q: For CXCL13, which pKd_value (receptor CXCR5 (cxcr5_human, P32302)) is on record?
A: 7.3

Q: Which pKi_value [10] does the source give for GHRH here?
A: 6.2

Q: With GnRH I as the molecule, how does the pEC50_value [11] read?
A: 10

Q: And the pIC50_value [11]?
A: 8.6

Q: And the pKd_value [11]?
A: 8.5

Q: And the pKi_value [11]?
A: 8.4

Q: With “GnRH II (QHWSHGWYPG; ends and bridges not checked; UniProt O43555 24-33, looked up)” as the molecule, how does the pIC50_value [11] read?
A: 7.9

Q: For “INSL5 (Insulin-like peptide INSL5 B … KESVRLCGLEYIRTVIYICASSRW; Insulin-like peptide INSL5 A … QDLQTLCCTDGCSMTDLSALC; UniProt Q9Y5Q6 23-46; Q9Y5Q6 115-135, looked up)”, which pEC50_value [12] is on record?
A: 8.9

Q: What about the pIC50_value [12] of the same molecule?
A: 8.9

Q: What about the pKi_value [12] of the same molecule?
A: 8.8

Q: What does the source list for PACAP-38 [reference compound]?
A: pEC50_value [13]: 10.3; pKi_value [13]: 9; pEC50_value [10]: 9.7; pKi_value [10]: 8.2; pEC50_value (receptor vipr2_human (VIPR2, P41587)): 9.3

Q: With PTHrP-(1-36) as the molecule, how does the pIC50_value (receptor pth1r_human (PTH1R, Q03431)) read?
A: 6.5

Q: And the pIC50_value (receptor pth2r_human (PTH2R, P49190))?
A: 5.7

Q: With “PrRP-20 (TPDINPAWYASRGIRPVGRF; not fully specified; ends and bridges not checked; UniProt P81277 34-53, looked up)” as the molecule, how does the pKi_value (receptor PRLHR (prlhr_human, P49683)) read?
A: 9.6

Q: Which pEC50_value (receptor QRFPR (qrfpr_human, Q96P65)) does the source give for “QRFP43 (QDEGSEATGFLPAAGEKTSGPLGNLAEELNGYSRKKGGFSFRF-NH2; UniProt P83859 91-133, looked up)” here?
A: 8.6
